According to article PMC8571378, “Reversion analysis reveals the in vivo immunogenicity of a poorly MHC I-binding cancer neoepitope” (Nature Communications, 2021):

What was measured:
Meth A [1] = assay: Tumor rejection (immunization-challenge) assay; tumor growth AUC and tumor rejection score (TRS); format: in vivo, BALB/cJ mice
Procedure: Each line represents tumor growth in a single mouse (n = 5 mice per group). AUC for each group is plotted in the panel on the right. Data are presented as mean ± SD. P values were calculated using 1-way ANOVA test adjusted for multiple comparisons (Tukey’s multiple comparison test). c Several truncated versions of the 18-mer Ccdc85c^MUT peptide were tested in tumor rejection assay. BALB/cJ mice were immunized and tumor challenged. Each line represents tumor growth in a single mouse. Although mice were immunized with individual peptides, the data for multiple peptides are grouped into one with the composition of the peptides shown on the right. The tumor rejection data for individual peptides are shown in Supplementary Fig. 1. Tumor rejection score (TRS) for each neoepitope is shown in the yellow box, where five represents a complete tumor protection and zero means no tumor rejection. d On the left panel, total Area Under the Curve (AUC) scores for each group in B are plotted. […] Error bars represent standard deviation (SD). […] P values were calculated using 1-way ANOVA test adjusted for multiple comparisons. […] Matched peak lists for the “heavy” and “light” ions were extracted and monitored, while only single charge y ions were plotted. See Methods for details. f Predicted (by NetMHC4.0) and measured IC50 values of the binding of candidate precise neoepitopes of Ccdc85c^MUT to K^d are shown. […] The affinities of the MS/TRS predicted neoepitopes were also measured for D^d and L^d; measured affinities were below the level of detection.
The mutation is heterozygous and the un-mutated as well as the mutated reads are detected in the transcripts. […] All mice were challenged with the Meth A cells, and tumor rejection was monitored (Fig. 1b upper panel). […]
Area under the curve (AUC) is used as a tool to measure tumor growth. Briefly, AUC was calculated by selecting “Curves & Regression” and then “Area under curve” from the “analyze” tool, using the Prism 5.0 (GraphPad). […]

splenic CD8 T cells = assay: ELIspot for interferon γ of splenic CD8 T cells from immunized mice; format: cell-based, BALB/c mice; settings: spleens seven days after second immunization; in vitro stimulation with immunizing 18-mer, 10 µM
Source text: BALB/c mice were immunized with 18-mer peptides containing Ccdc85c^MUT as well as Ccdc85c^WT as described in Methods. Spleens were harvested seven days after the second immunization and splenic CD8 T cells tested by ELIspot for interferon γ production in response to stimulation in vitro with the peptides used for immunization. […] Since the CD8 response detected in vitro was so modest, CD8 response as detected in vivo in the tumor microenvironment became our focus.
Supplementary Fig. 3. CD8 response to Ccdc85cMUT and Ccdc85cWT peptides. BALB/c mice were immunized twice at a weekly interval with 18-mer peptides containing Ccdc85cWT (left) or Ccdc85cMUT (right) as described in Methods. Spleens were harvested seven days after the second immunization and CD8 T cells stimulated in vitro with the peptides (10 µM concentration) used for immunization, as indicated. CD8 cells were analyzed for release of interferon g. Each dot represents a single mouse. The P values were calculated using two tailed t-test. Data are presented as mean values +/- SD. […]

Meth A [2] = settings: anti-CD8 antibody during the priming phase; control antibody without effect; as previously described; cited from earlier work
Source text: The mutation is heterozygous and the un-mutated as well as the mutated reads are detected in the transcripts. BALB/cJ bone marrow derived dendritic cells (BMDCs) pulsed with an 18-mer peptide with the mutant amino acid near the center ([…]) or un-mutated peptide ([…]), were used to immunize BALB/cJ mice. All mice were challenged with the Meth A cells, and tumor rejection was monitored (Fig. 1b upper panel).

With “DPSSTYIRPFETKVKLLD [18-mer peptide with the mutant amino acid near the center]” the “tumor rejection (in words)” value (Meth A [1]; BALB/cJ mice immunized twice, CTLA4 blockade) was “potent tumor rejection or control in all mice”, the “Tumor rejection score (TRS)” value (Meth A [1]; BALB/cJ mice, BMDCs pulsed with 40 µg peptide, two immunizations one week apart, CTLA4 blockade (9D9), scale 0 (no rejection) to 5 (100% of mice)) was 5.0 and the “CD8 response (interferon γ ELIspot)” value (splenic CD8 T cells) was “very modest but statistically significant CD8 response”. The “effect of CD8 depletion on anti-tumor activity” value (Meth A [2]) was “abrogated”.
